The text below walks through data of patent US20160166556A1, “METHODS OF TREATING PULMONARY HYPERTENSION” (Gilead Sciences, Inc., priority 2014, published 2016).

This test has as its system ASK1 pathway (p38 phosphorylation) in the rat RV. Kind of test: Auranofin model of oxidative stress-induced ASK1 activation in the rat right ventricle (phospho-p38 Western blot). Type of test: in vivo, Sprague-Dawley rats. The text has this:
IP90 was used as a loading control.
In this study, the auranofin model of oxidative stress-induced ASK1 activation was used to determine the effects of ASK1 inhibitor in preventing or inhibiting oxidative stress-induced activation of the ASK1 pathway in the rat RV. ASK1 is normally bound and repressed by the thiol-containing antioxidant protein thioredoxin 1 (Trx1). […] When administered in vivo, auranofin results in ASK1-mediated phosphorylation of p38MAPK, which in turn promotes induction of cytokine/chemokine gene expression.
Rats were then challenged with a single intraperitoneal (ip) injection of auranofin at 30 mg/kg to induce oxidative stress. The levels of phosphorylated p38 in RV lysates were evaluated by Western blot analysis and normalized to IP90.
A general note: In western blotting, separated proteins are transferred to a membrane and probed.

SMILES strings stand for the structures.

With `Cc1cc(F)c(C(=O)Nc2cccc(-c3nncn3C(C)C)n2)cc1-n1cnc(C2CC2)c1` [Compound 3, 5-(4-cyclopropyl-1H-imidazol-1-yl)-2-fluoro-N-(6-(4-isopropyl-4H-1,2,4-triazol-3-yl)pyridin-2-yl)-4-methylbenzamide], under “single oral dose 0.3, 1, 3 or 10 mg/kg, then auranofin 30 mg/kg ip”, the “auranofin-induced p38 phosphorylation in RV” value is “dose-dependent reduction”.

On to `CC[PH](CC)(CC)[Au][S][C@@H]1O[C@H](COC(C)=O)[C@@H](OC(C)=O)[C@H](OC(C)=O)[C@H]1OC(C)=O` [auranofin, 2,3,4,6-tetra-O-acetyl-1-thio-β-d-glucopyranosato-S-(triethylphosphine) gold], for which the “normalized level of phosphorylated p38 in RV (p-p38/IP90)” value (auranofin 30 mg/kg ip alone, mean±SEM, vehicle group 1.0±0.1) stood at 2.0±0.2.
